Test results reported in publication PMC11312998, “Molecular Pro-Apoptotic Activities of Flavanone Derivatives in Cyclodextrin Complexes: New Implications for Anticancer Therapy” (International Journal of Molecular Sciences, 2024).
Values after ≈ are worked out from the molar mass of the structure shown. Where two headings read alike, the source gives them in different places. Blank lines part the entries; values can stand above or below the molecule they belong to.

Columns and labels:
Hec-1-A = experiment: MTT cytotoxicity assay; assay type: cell-based; settings: Homo sapiens, 24 h incubation, mean ± SEM
Procedure: (§1) Cell viability was determined using the metabolic microplate spectrophotometric assay with Methylthiazolyl diphenyltetrazolium bromide (MTT), i.e., 3-(4,5-Dimethyl-2-thiazolyl)-2,5-diphenyl-2H-tetrazolium bromide (Sigma-Aldrich; St. Louis, MO, USA). The anticancer activity of the investigated compounds was evaluated in vitro on the basis of their ability to inhibit the proliferation of various cancer cells. The appropriate number of cells for a given cell line (6–8 × 10^3 cells/mL) were seeded into sterile, colorless 96-well microplates. After 24 h of culture, specific wells of the microplate were treated with test compounds (10–200 µmol/L concentration) and incubated in a CO2 incubator for 24 h. The medium was then removed, the cell monolayer was washed twice with sterile PBS solution and fresh culture medium was added to the wells of the microplate.
(§2) After 48 h of cell culture, the MTT test was conducted. In each well of the microplate, 50 µL of tetrazolium salt solution (final concentration 0.05 mg/mL) was added. The microplate was then placed in a CO2 incubator for 3–4 h (depending on the cell line). Following incubation, 100 µL of DMSO (dimethyl sulfoxide, Sigma-Aldrich, St. Louis, MO, USA) was added to the microplate wells to dissolve the purple formazan crystals formed in the environment of living cells. The absorbance of the formazan solution was read at a wavelength of λ = 580 nm and a reference wavelength of λ = 720 nm after gentle mixing (Biotek Power Wave HT, Biotek Instruments, Winooski, VT, USA).
(§3) The percentage of live cells was calculated by comparing the absorbance value of the tested samples with that of the control (cells not treated with compounds). Control absorbance was arbitrarily considered to be 100%.
(§4) In order to determine the contribution of ROS to the cytotoxicity of the tested compounds, the cells were pre-incubated for 1 h with the antioxidant vitamin E (Trolox, Sigma-Aldrich; St. Louis, MO, USA). Cells were seeded into sterile, colorless 96-well microplates at a concentration of 6–8 × 10^3 cells/mL, depending on the cell line. After 24 h of culture, Trolox was added at a final concentration of 50 μM/well. After 1 h of incubation, the antioxidant was washed off, then appropriate concentrations of test compounds (10–200 µmol/L concentration) were added to fresh cell culture medium and incubated for 24 h. The MTT test was then performed under identical experimental conditions, as described in Section 3.1.2.

MDA-MB-231 = experiment: MTT cytotoxicity assay; assay type: cell-based; settings: Homo sapiens, 24 h incubation, mean ± SEM
Procedure: as §1, §2, §3, §4

MCF-7 = experiment: MTT cytotoxicity assay; assay type: cell-based; settings: Homo sapiens, MCF7, 24 h incubation, mean ± SEM
Procedure: as §1, §2, §3, §4

HCC38 = experiment: MTT cytotoxicity assay; assay type: cell-based; settings: Homo sapiens, 24 h incubation, mean ± SEM
Procedure: as §1, §2, §3, §4

cancer cells = experiment: Reactive oxygen species generation (results not published); assay type: cell-based
Ishikawa = experiment: MTT cytotoxicity assay; assay type: cell-based; settings: Homo sapiens, Ishikawa, 24 h incubation, mean ± SEM
Procedure: as §1, §2
The percentage of live cells was calculated by comparing the absorbance value of the tested samples with that of the control (cells not treated with compounds). Control absorbance was arbitrarily considered to be 100%. […]

[1] = tested on: breast cancer cells (MCF-7, MDA-MB-231 and HCC38) and endometrial cancer cells (Ishikawa, Hec-1-A); experiment: MTT cytotoxicity assay, summary over the cell lines; assay type: cell-based, human; settings: for cytotoxic activity (in words): range of 10–200 µM, all cancer lines
Procedure: as §1, §2
The percentage of live cells was calculated by comparing the absorbance value of the tested samples with that of the control (cells not treated with compounds). Control absorbance was arbitrarily considered to be 100%. […] Moreover, cisplatin (Sigma-Aldrich, St. Louis, MO, USA) was used as a reference compound, and identical incubation conditions were used as described above.

[2] = Water solubility by UV–Vis spectrophotometry (phase solubility with cyclodextrins); assay type: physicochemical; settings: 25 °C, thermodynamic from solid, 298.15 K, without cyclodextrin, read-out: Solubility in H2O
Procedure: Spectrophotometric measurements were performed using a SPECORD 50 single-beam UV–Vis spectrophotometer (Analyst Jena, Thuringia, Germany). The calibration lines of the compounds tested were determined for the concentration range of 3.0 × 10^−6 M to 1 × 10^−4 M (Figure 21). The molar extinction coefficients for 3, 3a, and 5 were determined experimentally in an aqueous ethanol solution; the relevant maximum wavelengths are presented in Table 9. The influence of α-cyclodextrins, β-cyclodextrins and HP-β-cyclodextrins on the solubility of the tested ligands in water was evaluated in three measurement series. Briefly, excess ligand was introduced into closed Eppendorff tubes containing α-CD, β-CD or HP-β-CD solutions, at concentrations ranging from 1 to 90 mM for α-CD and HP-β-CD and from 1 to 15 mM for β-CD. The test tubes were stored for 10 days at a temperature of 298.15 K until equilibrium was achieved. After this time, the solutions were centrifuged using a Microcentrifuge MPW-55 at 13,000 rpm for five minutes. For testing, a clear solution was taken from above the sediment and diluted appropriately so that the spectrum was within the operating range of the spectrophotometer.

[3] = Isothermal titration calorimetry (ITC) of inclusion complex formation; assay type: physicochemical; settings: DMSO, 25 °C
Procedure: Measurements were carried out using a MicroCal VP-ITC100 microcalorimeter equipped with a 1400 μL measurement cell. All titrations were carried out under isothermal conditions at 25 degrees C in DMSO solution, which was used as a solvent. The mixing speed during the measurements was 351 rpm. The 0.2 mM solution of the ligand (3, 3a and 5) located in the measurement cell was titrated with the cyclodextrin solution located in the syringe. Each measurement consisted of 50 injections of cyclodextrin with a volume of 5 uL and a concentration of 5 mM. The interval between individual injections was 300 s. The effect of direct interaction of the ligand with CD was calculated by subtracting the thermal effects of diluting 5 mM cyclodextrin in a pure solvent. The dilution effect of the 0.2 mM ligand solution was negligible. The results obtained were processed in the MicroCall Origin 7 software. Using a single active site model (ITC Tutorial Guide), the stability constant K of the resulting complex, its stoichiometry n and thermodynamic parameters that describe the ongoing process were determined, viz., enthalpy (ΔH), Gibbs free energy (ΔG) and entropy (ΔS).

[4] = MTT cytotoxicity assay, model of normal cells; assay type: cell-based; settings: human, HMEC-1 cells (model of normal cells), 24 h incubation, mean ± SEM, read-out: Cytotoxic effect of analogues incorporated in cyclodextrins and cyclodextrin, IC50
Procedure: as §1, §2, §3

RBCs = experiment: Erythrocyte morphology, phase contrast microscopy; assay type: cell-based, human; settings: all tested concentrations; 24 h, 37 °C
Procedure: The experiments on human blood were performed in accordance with Polish national guidelines, and the study protocols were approved by the Bioethics Committee of the Medical University of Lodz, Poland: approval no (RNN/104/20/KE). The blood samples were obtained from healthy donors at the Blood Donation Centre in Lodz. The procedure for […] for erythrotoxicity studies is given in a previous paper. The influence of the synthesized compounds, together with a reference compound on RBC membrane integrity, was performed by lysis assay, described elsewhere. Briefly, 2% RBC suspension in 0.9% NaCl was incubated at 37 °C for 24 h with the tested compounds at concentrations of 100 µmol/L, 50 µmol/L, 25 µmol/L, 10 µmol/L and 1 µmol/L. The samples were centrifuged at 3000 rpm for 10 min, and the absorbance of the supernatant was measured at 550 nm. The results are presented as a percentage of hemolysis where a sample containing 10 μL of 2.0% v/v Triton X-100 was regarded as a positive control contributing to 100% of hemolysis. A sample containing saline solution represented the spontaneous hemolysis of RBCs (control). The experiments were conducted using at least three different biological materials (n = 3). […] Additionally, erythrocyte morphology was evaluated using a phase contrast Opta-Tech inverted microscope at 400× magnification.

[5] = read-out: Cytotoxic effect, IC50
[6] = read-out: Cytotoxic effect of analogues incorporated in cyclodextrins and cyclodextrin, IC50

solubility at 10 days [2]: 1.55 µM (≈ 0.596 µg/mL)
K (formation constant) ([3]; HP-β-cyclodextrin): 5.66 × 10^3 ± 390
n (stoichiometry) ([3]; HP-β-cyclodextrin): 0.98 ± 0.09
ΔG ([3]; HP-β-cyclodextrin): −21,420.7 J mol^−1
ΔH ([3]; HP-β-cyclodextrin): -0.185 ± 0.0141 kcal/mol
ΔS ([3]; HP-β-cyclodextrin): 69.3 J mol^−1K^−1
K (formation constant) ([3]; α-cyclodextrin): 1.51 × 10^3 ± 130
n (stoichiometry) ([3]; α-cyclodextrin): 0.85 ± 0.13
ΔG ([3]; α-cyclodextrin): −18,145.5 J mol^−1
ΔH ([3]; α-cyclodextrin): -0.0669 ± 0.021 kcal/mol
ΔS ([3]; α-cyclodextrin): 59.9 J mol^−1K^−1
K (formation constant) ([3]; β-cyclodextrin): 2.49 × 10^3 ± 200
n (stoichiometry) ([3]; β-cyclodextrin): 0.92 ± 0.11
ΔG ([3]; β-cyclodextrin): −19,385.4 J mol^−1
ΔH ([3]; β-cyclodextrin): -0.202 ± 0.017 kcal/mol
ΔS ([3]; β-cyclodextrin): 62.2 J mol^−1K^−1
Structure (SMILES): COc1cccc(C2CN=NC23C(=O)c2ccccc2OC3c2ccccc2)c1 (stereo not drawn) [Compound 3a]
IC50 (Hec-1-A; [5]): 67.2 ± 2.5 µM
IC50 (MDA-MB-231; [5]): > 120 µM
IC50 (MCF-7; [5]): 84.2 ± 2.2 µM
IC50 (HCC38; [5]): > 120 µM
changes in the level of reactive oxygen species generation (in words) (cancer cells): no statistically significant changes
IC50 (Ishikawa; [5]): 68.5 ± 4.6 µM
cytotoxic activity (in words) [1]: very weak cytotoxic activity

Structure (SMILES): OC[C@H]1O[C@@H]2O[C@H]3[C@H](O)[C@@H](O)[C@@H](O[C@H]4[C@H](O)[C@@H](O)[C@@H](O[C@H]5[C@H](O)[C@@H](O)[C@@H](O[C@H]6[C@H](O)[C@@H](O)[C@@H](O[C@H]7[C@H](O)[C@@H](O)[C@@H](O[C@H]8[C@H](O)[C@@H](O)[C@@H](O[C@H]1[C@H](O)[C@H]2O)O[C@@H]8CO)O[C@@H]7CO)O[C@@H]6CO)O[C@@H]5CO)O[C@@H]4CO)O[C@@H]3CO [β-CD, β-cyclodextrin, reference compound]
IC50 (Hec-1-A; [6]): > 120 µM
IC50 (MDA-MB-231; [6]): > 120 µM
IC50 (MCF-7; [6]): > 120 µM
IC50 (HCC38; [6]): > 120 µM
IC50 at 24 h [4]: > 120 µM
RBC morphology (in words) (RBCs): no pathological changes in RBCs or damaged cells were observed
IC50 (Ishikawa; [6]): > 120 µM
cytotoxic activity of pure cyclodextrin (in words) ([1]; HMEC-1 endothelial cells or any tested cancer cells, 10–120 µM): not found to demonstrate any cytotoxic activity

Structure (SMILES): CCN(CC)c1ccc(/C=C2/C(=O)c3ccccc3OC2c2ccccc2)cc1 (stereo not drawn) [Compound 2]
IC50 (Hec-1-A; [5]): > 200 µM
IC50 (MDA-MB-231; [5]): > 200 µM
IC50 (MCF-7; [5]): 122 ± 6.7 µM
IC50 (HCC38; [5]): > 200 µM
changes in the level of reactive oxygen species generation (in words) (cancer cells): no statistically significant changes
IC50 (Ishikawa; [5]): > 200 µM
cytotoxic activity (in words) [1]: very weak cytotoxic activity

Structure (SMILES): Cc1ccc(/C=C2/C(=O)c3ccccc3OC2c2ccccc2)cc1 (stereo not drawn) [Compound 4]
IC50 (Hec-1-A; [5]): 44.6 ± 4.5 µM
IC50 (MDA-MB-231; [5]): > 120 µM
IC50 (MCF-7; [5]): 53.4 ± 4.1 µM
IC50 (HCC38; [5]): 93.2 ± 2.8 µM
changes in the level of reactive oxygen species generation (in words) (cancer cells): no statistically significant changes
IC50 (Ishikawa; [5]): 48.9 ± 6.1 µM
cytotoxic activity (in words) [1]: very weak cytotoxic activity
